Measured values published in PubChem BioAssay (NCI).
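The compound was tested at five concentrations on cells cultured in 96-well plates, with a 48-hour exposure period. Definition used: TGI = concentration required for complete inhibition of growth.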

Experiments:
Assay in all cases: NCI anticancer screen, dose series, 48 h
OVCAR-8 ovarian = test system: OVCAR-8 ovarian
IGROV1 ovarian = test system: IGROV1 ovarian
UACC-257 melanoma = test system: UACC-257 melanoma
HOP-62 NSCLC = test system: HOP-62 NSCLC
NCI-H522 lung = test system: NCI-H522 lung
OVCAR-5 ovarian = test system: OVCAR-5 ovarian
M19-MEL melanoma = test system: M19-MEL melanoma
A549 NSCLC = test system: A549 NSCLC
SK-MEL-5 melanoma = test system: SK-MEL-5 melanoma
HCC-2998 colon = test system: HCC-2998 colon
LXFL 529 NSCLC = test system: LXFL 529 NSCLC

Row | Compound | TGI (OVCAR-8 ovarian) | TGI (IGROV1 ovarian) | TGI (UACC-257 melanoma) | TGI (HOP-62 NSCLC) | TGI (NCI-H522 lung) | TGI (OVCAR-5 ovarian) | TGI (M19-MEL melanoma) | TGI (A549 NSCLC) | TGI (SK-MEL-5 melanoma) | TGI (HCC-2998 colon) | TGI (LXFL 529 NSCLC)
1 | CCN(CC)CCNC(=O)C1COc2ccc(-c3cc(=O)c4ccccc4o3)cc2O1 (configuration not stated) | 33.4 µM | 63.5 µM | 32 µM | 47 µM | 32.5 µM | 56.7 µM | 32.5 µM | 49.8 µM | 35.9 µM | 35.4 µM | 
2 | c1ccc(C2SCc3nc4ccccc4n32)cc1 (configuration not stated) | > 100 µM | > 100 µM | 77.6 µM | > 100 µM | 77.8 µM | > 100 µM | > 100 µM | > 100 µM | 56.4 µM | > 100 µM | 
3 | CCN1CC2(CO)CCC(OC)C34C5CC6C(OC)CC(O)(C5C6OC)C(O)(C(OC)C23)C14 (configuration not stated) | > 375 µM | > 375 µM | > 375 µM | > 375 µM | > 375 µM | > 209 µM | > 375 µM | > 375 µM | > 211 µM | > 375 µM | 
4 | CC(C)c1cccc(C(C)C)c1NC(=O)/C(Cc1nc2ccc(Cl)cc2[nH]c1=O)=N\NC(=O)C[N+](C)(C)C | > 100 µM | > 100 µM | > 100 µM | > 100 µM | > 100 µM | > 100 µM | > 100 µM | > 100 µM | > 100 µM | > 100 µM | 
5 | C=C1C(=O)OC2C=C(C)CC3C=C(CCC=C(C)CCC12)C(=O)O3 (configuration not stated) | 174 µM | 115 µM | 106 µM | 216 µM | 57.9 µM | 208 µM | 135 µM | 203 µM | 138 µM | 105 µM | 
6 | O=C1C2=C(c3ccccc31)C(c1ccc([N+](=O)[O-])cc1)NC(=S)N2 (configuration not stated) |  | > 100 µM | > 100 µM | > 100 µM | > 100 µM | > 100 µM | > 100 µM | > 100 µM | > 100 µM |  | > 100 µM
7 | Clc1cccc(C=NC23CC4CC(CC(C4)C2)C3)c1Cl | > 10 µM | > 10 µM | > 10 µM | > 10 µM | > 10 µM | > 10 µM |  | > 10 µM | > 10 µM | > 10 µM | 
8 | Nc1nc(Cl)cc(OCC2(CO)CCCCC2)n1 | > 100 µM | > 100 µM | > 100 µM | > 100 µM | > 100 µM | > 100 µM |  | > 100 µM | > 100 µM | 82.1 µM | 
9 | COc1cc([C@@H]2c3cc4c(cc3[C@H](OC3OC5COC(C(C)C)OC5C(O)C3O)C3COC(=O)[C@@H]32)OCO4)cc(OC)c1OC (some centres not stated) | 30.1 µM | 12.5 µM | 22.6 µM | 25.4 µM | 17.7 µM | > 73.8 µM |  | > 100 µM | 20.4 µM | 21.7 µM | 
10 | CCc1cc2c(cc1O)CC[C@@H]1[C@@H]2CC[C@]2(C)[C@@H](O)CC[C@@H]12 | 22.4 µM | 28.4 µM | 20 µM | 19.8 µM | 27.3 µM | 39.4 µM |  | 21.3 µM | 20.4 µM | 24 µM | 
11 | O=C(O)C(=Cc1ccc(-c2ccc([N+](=O)[O-])cc2)o1)C(=O)O | > 100 µM | > 100 µM | > 100 µM | > 100 µM | > 100 µM | > 100 µM |  | > 100 µM | > 100 µM | > 100 µM | 
12 | CCCCCCCCC/C=C1/CC(CO)(COC(=O)C2CCCCC2)OC1=O (configuration not stated) | > 100 µM | > 100 µM | > 100 µM | > 100 µM | > 100 µM | > 100 µM |  | > 100 µM | > 100 µM | > 100 µM | 
13 | COc1ccc2cc(CNCCOCCOCCNCc3ccc4cc(OC)ccc4c3)ccc2c1 | 2.97 µM | 3.45 µM | 3.18 µM | 3.87 µM | 3.49 µM | 3.89 µM |  | 3.12 µM | 1.81 µM | 0.319 µM | 
14 | Cc1ccc(S(=O)(=O)N(CC(O)COc2ccccc2)c2ccccc2Cl)cc1 (configuration not stated) | 33.5 µM | 25.1 µM | 29.3 µM | 34.8 µM | 25.1 µM | 51 µM |  | 27.9 µM | 27.8 µM | 37 µM | 
15 | O=c1oc2c(Cl)cc(Cl)cc2cc1-c1cn2c(n1)sc1ccccc12 | > 100 µM | > 100 µM | > 100 µM | > 100 µM | 88.8 µM | > 100 µM |  | > 100 µM | > 100 µM | 95 µM | 
16 | Clc1ccc(CCNCCNC2(c3cc4ccccc4s3)CCCCC2)cc1Cl | 3.54 µM | 3.24 µM | 3.29 µM | 2.6 µM | 3.37 µM | 3.64 µM |  | 3.81 µM | 3.12 µM | 2.82 µM | 
17 | COc1cc2c(cc1OC)C/C(=N\O)c1cc(OC)c(OC)cc1/C=C\2 | 73.3 µM | 72.8 µM | > 48.8 µM | > 27 µM | 4.8 µM | > 55.3 µM |  | > 100 µM | 8.26 µM | 31.8 µM | 
18 | COC(=O)C1=C(C(=O)OC)SC2(S1)C(C(=O)OC)=C(C(=O)OC)Sc1c2ssc1=O | 2.69 µM | 3.63 µM | 3.59 µM | 4.53 µM | 0.581 µM | 5.02 µM |  | 31 µM | 2.59 µM | 2.72 µM | 
